Laboratory results from US8497272B2, “Compounds for treating proliferative disorders” (Synta Pharmaceuticals Corp., priority 2006, dated 2013).

Tested on: inducible human Hsp70
Experiment: Hsp70 RNA induction by quantitative PCR analysis in Ramos B cells
Format: cell-based
Settings: 500 nM compound, 6 hours, Hsp70 RNA relative to gapdh; for % induction relative to Compound X: Compound X set to 100%; for fold induction at 0.5 µM: Homo sapiens, read-out: fold induction over DMSO
Experimental: The ability of the compounds of the invention to induce Hsp70 RNA induction by quantitative PCR analysis was examined. Ramos B cells were treated with 500 nM each compound for 6 hours and the RNA was isolated from the cells. Quantitative PCR was performed as described below:
Details for Quantitative PCR are as follows:
500 ng of RNA from each sample was used for cDNA synthesis using iScript cDNA Synthesis Kit (Biorad, Cat#170-8891). 1 ul of cDNA mixture was used with the iQ SYBR Green Supermix (Biorad, Cat#170-8882) to perform quantitative PCR in an iCycler machine (Biorad) using standard protocols. QPCR for each sample/time point was performed in duplicate. The following primers for inducible human Hsp70 and gapdh were used: […]
Ct values were obtained from the iCycler program and used in an equation (2^−ΔΔCT) for determining the amount of target relative to gapdh expression. This compares the relative expression of Hsp70 to the corresponding levels of gapdh in each sample. Duplicate wells were averaged. The amount of N-Malonyl-bis(N′-methyl-N′ thiobenzoylhydrazide) (Compound X) induction of Hsp70 was set to 100% and the percent of induction of Hsp70 by the compounds of the invention was determined relative to 100%.

| Compound | % induction relative to Compound X [%] | fold induction at 0.5 µM |
| --- | --- | --- |
| CN(NC(=O)CC(=O)NN(C)c1nccs1)c1nccs1 [Compound 71] | 0.33 | 0.87 |
| CN(NC(=O)CC(=O)NN(C)C(=S)NC1CC1)C(=S)NC1CC1 [Compound 69] | 0.12 | 0.3 |
| CN(NC(=O)CC(=O)NN(C)C(=S)Nc1ccccc1)C(=S)Nc1ccccc1 [Compound 67] | 0.09 | 0.22 |
| COC(=S)N(C)NC(=O)CC(=O)NN(C)C(=S)OC [Compound 70] | 0.57 | 1.41 |
| CN(NC(=O)c1cc(=O)cc(C(=O)NN(C)C(=S)c2ccccc2)o1)C(=S)c1ccccc1 [Compound 74, N′2,N′6-dimethyl-4-oxo-N′2,N′6-di(phenylcarbonothioyl)-4H-pyran-2,6-dicarbohydrazide] | 0.22 | 0.59 |
